≈ marks a conversion by molar mass, not a printed value. Where two headings read alike, the source gives them in different places. Positions of bridges follow the written chain, without caps; N, C: chain ends. Non-standard residues stand in square brackets, D forms with d. Residues, ends and D or L forms follow the SMILES beside them. *: point of attachment. Decanoyl(3R-OH) = CCCCCCC[C@@H](O)CC(=O)*; dDab = NCC[C@@H](N)C(=O)O; Dab = NCC[C@H](N)C(=O)O
How the values were obtained:
[1] = tested on: A. baumannii ATCC 19606; conditions: ATCC 19606
Outline: (§1)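 Mid-log cultures grown in Mueller Hinton broth at 37° C were tested by 2-fold broth microdilution at 5×10^5 CFU/mL final. Compounds were dissolved in water and tested over a final range of 32 to 0.015 μg/mL.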

[2] = tested on: A. baumannii GN_093 PmxR; conditions: GN 093 PmxR
Outline: as §1

[3] = tested on: E. coli ATCC 25922; conditions: ATCC 25922
Outline: as §1

[4] = tested on: K. pneumoniae ATCC 13883; conditions: ATCC 13883
Outline: as §1

[5] = tested on: K. pneumoniae ATCC 700603, MDR; conditions: ATCC 700603
Outline: as §1

[6] = tested on: K. pneumoniae ATCC BAA-2146, NDM-1 pos; conditions: ATCC BAA-2146
Outline: as §1

[7] = tested on: K. pneumoniae GN_102 PmxR; conditions: GN 102 PmxR
Outline: as §1

[8] = tested on: K. pneumoniae GN_106, PmxR; conditions: GN 106, PmxR
Outline: as §1

[9] = tested on: P. aeruginosa ATCC 27853; conditions: ATCC 27853
Outline: as §1

[10] = tested on: P. aeruginosa GN_043, PmxR; conditions: for MIC, P. aeruginosa FADDI-PA070, PmxR: Table 5
Outline: as §1

[11] = tested on: P. aeruginosa GN_105, PmxR; conditions: GN 105, PmxR
Outline: as §1

[12] = tested on: S. aureus ATCC 25923, MSSA; conditions: ATCC 25923
Outline: as §1

[13] = in vitro; conditions: human
Method: Cytotoxicity of the synthesised peptides was evaluated by comparison with commercially available colistin (polymyxin E), polymyxin B (Sigma chemical Co., St. Louis, Mo., U.S.A.) and synthetic octapeptin C4 by conducting lactate dehydrogenase (LDH) assay. CC50 values calculated based on curve fitting of dose dependent inhibition of cell growth represented the cytotoxicity of the peptide. Human kidney 2 (HK2) cells were seeded as 2000 cells per well in a 384 well cell culture plate in a final volume of 20 μL in DMEM/F12 medium (Invitrogen #11330057), in which 10% of FBS was added. Cells were incubated for 24 hours at 37° C., 5% CO2 to allow cells to attach to the plates. Similar conditions were employed for HEK293 and HepG2 cytotoxicity assays.
Colistin and polymyxin B were tested from a range of 2 mM to 0.9 μM. 120 μL of the 1 mM stock solutions in water of each synthesised peptide were freeze-dried and processed for LDH assay. After freeze-dry procedure, the compounds were reconstituted into 600 μM solutions using culture media. All tested compounds were diluted from 600 μM to 0.27 μM in 3-fold dilutions. Then 20 μL of each dilution was added into 20 uL of culture medium in quadruplicate to reach the final concentrations. The cells were incubated with the compounds for 24 h at 37° C., 5% CO2. After the incubation, 5 μL of culture medium was added to 50 μL of LDH assay buffer and incubated for 1 h at room temperature. The absorbance was read at 450 nm using Polarstar. The data was then analysed by Prism software. […] Nephrotoxicity Assessment in Human Proximal Tubule Cells.

SMILES	MIC A. baumannii ATCC 19606 [1] [µg/mL]	MIC A. baumannii GN_093 PmxR [2] [µg/mL]	MIC E. coli ATCC 25922 [3] [µg/mL]	MIC K. pneumoniae ATCC 13883 [4] [µg/mL]	MIC K. pneumoniae ATCC 700603, MDR [5] [µg/mL]	MIC K. pneumoniae ATCC BAA-2146, NDM-1 pos [6] [µg/mL]	MIC K. pneumoniae GN_102 PmxR [7] [µg/mL]	MIC K. pneumoniae GN_106, PmxR [8] [µg/mL]	MIC P. aeruginosa ATCC 27853 [9] [µg/mL]	MIC P. aeruginosa GN_105, PmxR [11] [µg/mL]	MIC S. aureus ATCC 25923, MSSA [12] [µg/mL]	CC50 at 24 h [13] [µM]	MIC, A. baumannii ATCC 19606 [1] [µg/mL]	MIC, E. coli ATCC 25922 [3] [µg/mL]	MIC, K. pneumoniae ATCC 13883 [4] [µg/mL]	MIC, K. pneumoniae ATCC 700603, MDR [5] [µg/mL]	MIC, K. pneumoniae ATCC BAA-2146, NDM-1 pos [6] [µg/mL]	MIC, P. aeruginosa ATCC 27853 [9] [µg/mL]	MIC P. aeruginosa GN_043, PmxR ([10]; P. aeruginosa GN_043, PmxR) [µg/mL]	other results
CCCCCCC[C@@H](O)CC(=O)N[C@H](CCN)C(=O)N[C@H]1CCNC(=O)[C@H](C)NC(=O)[C@H](CCN)NC(=O)[C@H](CCN)NC(=O)[C@H](CC(C)C)NC(=O)[C@@H](Cc2ccccc2)NC(=O)[C@H](CCN)NC1=O [compound 4943, 3(R)OH-nC9CO-D-Dab-cyc[L-Dab-L-Dab-D-Phe-L-Leu-L-Dab-L-Dab-L-Ala]] ({Decanoyl(3R-OH)}-[dDab][Dab][Dab][dF]L[Dab][Dab]A; lactam 2-C)	>32	32 (≈ 31.9 µM)	8 (≈ 7.98 µM)	16 (≈ 16 µM)	8 (≈ 7.98 µM)	8 (≈ 7.98 µM)	8 (≈ 7.98 µM)	16 (≈ 16 µM)	1 (≈ 0.998 µM)	16 (≈ 16 µM)	>32	> 300	–	–	–	–	–	–	–	MIC P. aeruginosa GN_043, PmxR ([10]; polymyxin-resistant): 0.5 µg/mL (≈ 0.499 µM)
CCCCCCC[C@@H](O)CC(=O)N[C@H](CCN)C(=O)N[C@H]1CCNC(=O)[C@H](CC(C)C)NC(=O)[C@H](CCN)NC(=O)[C@H](C)NC(=O)[C@H](CC(C)C)NC(=O)[C@@H](Cc2ccccc2)NC(=O)[C@H](CCN)NC1=O [compound 4945, 3(R)OH-nC9CO-D-Dab-cyc[L-Dab-L-Dab-D-Phe-L-Leu-L-Ala-L-Dab-L-Leu]] ({Decanoyl(3R-OH)}-[dDab][Dab][Dab][dF]LA[Dab]L; lactam 2-C)	–	–	–	–	–	–	–	–	–	–	–	181	16 (≈ 15.8 µM)	16 (≈ 15.8 µM)	16 (≈ 15.8 µM)	8 (≈ 7.88 µM)	8 (≈ 7.88 µM)	4 (≈ 3.94 µM)	–	MIC, A. baumannii Cl Ptyela 10073 4512:2, PmxR [2]: 32 µg/mL (≈ 31.5 µM); MIC, K. pneumoniae Cl Koprana 10065 0661:1, PmxR [7]: 4 µg/mL (≈ 3.94 µM); MIC, K. pneumoniae Cl 138-16347-20362, PmxR [8]: 16 µg/mL (≈ 15.8 µM); MIC, P. aeruginosa FADDI-PA070, PmxR ([10]; polymyxin-resistant): 4 µg/mL (≈ 3.94 µM); MIC, P. aeruginosa PA9704, PmxR [11]: 8 µg/mL (≈ 7.88 µM); MIC, S. Aureus ATCC 25923, MSSA [12]: 32 µg/mL (≈ 31.5 µM)
CCCCCCC[C@@H](O)CC(=O)N[C@H](CCN)C(=O)N[C@H]1CCNC(=O)[C@H](CC(C)C)NC(=O)[C@H](CCN)NC(=O)[C@H](CCN)NC(=O)[C@H](C)NC(=O)[C@@H](Cc2ccccc2)NC(=O)[C@H](CCN)NC1=O [compound 4946, 3(R)OH-nC9CO-D-Dab-cyc[L-Dab-L-Dab-D-Phe-L-Ala-L-Dab-L-Dab-L-Leu]] ({Decanoyl(3R-OH)}-[dDab][Dab][Dab][dF]A[Dab][Dab]L; lactam 2-C)	16 (≈ 16 µM)	16 (≈ 16 µM)	16 (≈ 16 µM)	8 (≈ 7.98 µM)	8 (≈ 7.98 µM)	8 (≈ 7.98 µM)	4 (≈ 3.99 µM)	16 (≈ 16 µM)	1 (≈ 0.998 µM)	16 (≈ 16 µM)	>32	107	–	–	–	–	–	–	0.5 (≈ 0.499 µM)	–
CCCCCCC[C@@H](O)CC(=O)N[C@H](CCN)C(=O)N[C@H]1CCNC(=O)[C@H](CC(C)C)NC(=O)[C@H](CCN)NC(=O)[C@H](CCN)NC(=O)[C@H](CC(C)C)NC(=O)[C@H](C)NC(=O)[C@H](CCN)NC1=O [compound 4947, 3(R)OH-nC9CO-D-Dab-cyc[L-Dab-L-Dab-L-Ala-L-Leu-L-Dab-L-Dab-L-Leu]] ({Decanoyl(3R-OH)}-[dDab][Dab][Dab]AL[Dab][Dab]L; lactam 2-C)	>32	>32	>32	>32	>32	>32	>32	>32	32 (≈ 33 µM)	>32	>32	213	–	–	–	–	–	–	>32	–
CCCCCCC[C@@H](O)CC(=O)N[C@H](CCN)C(=O)N[C@H]1CCNC(=O)[C@H](CC(C)C)NC(=O)[C@H](CCN)NC(=O)[C@H](CCN)NC(=O)[C@H](CC(C)C)NC(=O)[C@@H](Cc2ccccc2)NC(=O)[C@H](C)NC1=O [compound 4948, 3(R)OH-nC9CO-D-Dab-cyc[L-Dab-L-Ala-D-Phe-L-Leu-L-Dab-L-Dab-L-Leu]] ({Decanoyl(3R-OH)}-[dDab][Dab]A[dF]L[Dab][Dab]L; lactam 2-C)	–	–	–	–	–	–	–	–	–	–	–	112	>32	16 (≈ 15.8 µM)	16 (≈ 15.8 µM)	16 (≈ 15.8 µM)	8 (≈ 7.88 µM)	1 (≈ 0.985 µM)	–	MIC, A. baumannii Cl Ptyela 10073 4512:2, PmxR [2]: >32 µg/mL; MIC, K. pneumoniae Cl Koprana 10065 0661:1, PmxR [7]: 8 µg/mL (≈ 7.88 µM); MIC, K. pneumoniae Cl 138-16347-20362, PmxR [8]: 16 µg/mL (≈ 15.8 µM); MIC, P. aeruginosa FADDI-PA070, PmxR ([10]; polymyxin-resistant): 1 µg/mL (≈ 0.985 µM); MIC, P. aeruginosa PA9704, PmxR [11]: >32 µg/mL; MIC, S. Aureus ATCC 25923, MSSA [12]: >32 µg/mL
CCCCCCC[C@@H](O)CC(=O)N[C@@H](C)C(=O)N[C@H]1CCNC(=O)[C@H](CC(C)C)NC(=O)[C@H](CCN)NC(=O)[C@H](CCN)NC(=O)[C@H](CC(C)C)NC(=O)[C@@H](Cc2ccccc2)NC(=O)[C@H](CCN)NC1=O [compound 4950, 3(R)OH-nC9CO-L-Ala-cyc[L-Dab-L-Dab-D-Phe-L-Leu-L-Dab-L-Dab-L-Leu]] ({Decanoyl(3R-OH)}-A[Dab][Dab][dF]L[Dab][Dab]L; lactam 2-C)	–	>32	–	–	–	–	8 (≈ 7.88 µM)	32 (≈ 31.5 µM)	–	32 (≈ 31.5 µM)	–	286	>32	32 (≈ 31.5 µM)	16 (≈ 15.8 µM)	16 (≈ 15.8 µM)	16 (≈ 15.8 µM)	16 (≈ 15.8 µM)	–	MIC P. aeruginosa GN_043, PmxR ([10]; Table 6, polymyxin-resistant): 16 µg/mL (≈ 15.8 µM); MIC, S. aureus ATCC 25923, MSSA [12]: >32 µg/mL
CCCCCCC[C@@H](O)CC(=O)N[C@H](C)C(=O)N[C@H]1CCNC(=O)[C@H](CC(C)C)NC(=O)[C@H](CCN)NC(=O)[C@H](CCN)NC(=O)[C@H](CC(C)C)NC(=O)[C@@H](Cc2ccccc2)NC(=O)[C@H](CCN)NC1=O [compound 4951, 3(R)OH-nC9CO-D-Ala-cyc[L-Dab-L-Dab-D-Phe-L-Leu-L-Dab-L-Dab-L-Leu]] ({Decanoyl(3R-OH)}-[dA][Dab][Dab][dF]L[Dab][Dab]L; lactam 2-C)	–	32 (≈ 31.5 µM)	–	–	–	–	4 (≈ 3.94 µM)	8 (≈ 7.88 µM)	–	16 (≈ 15.8 µM)	–	120	32 (≈ 31.5 µM)	16 (≈ 15.8 µM)	16 (≈ 15.8 µM)	8 (≈ 7.88 µM)	8 (≈ 7.88 µM)	8 (≈ 7.88 µM)	–	MIC P. aeruginosa GN_043, PmxR ([10]; Table 6, polymyxin-resistant): 8 µg/mL (≈ 7.88 µM); MIC, S. aureus ATCC 25923, MSSA [12]: 32 µg/mL (≈ 31.5 µM)
CCCCCCC[C@@H](O)CC(=O)N[C@H](CCN)C(=O)N[C@H]1CCNC(=O)[C@H](CC(C)C)NC(=O)[C@H](CCN)NC(=O)[C@H](CCN)NC(=O)[C@H](CC(C)C)NC(=O)[C@@H](C)NC(=O)[C@H](CCN)NC1=O [compound 5006, 3(R)OH-nC9CO-D-Dab-cyc[L-Dab-L-Dab-D-Ala-L-Leu-L-Dab-L-Dab-L-Leu]] ({Decanoyl(3R-OH)}-[dDab][Dab][Dab][dA]L[Dab][Dab]L; lactam 2-C)	>32	>32	16 (≈ 16.5 µM)	32 (≈ 33 µM)	>32	32 (≈ 33 µM)	8 (≈ 8.26 µM)	32 (≈ 33 µM)	16 (≈ 16.5 µM)	32 (≈ 33 µM)	>32	277	–	–	–	–	–	–	8 (≈ 8.26 µM)	–

Source: patent publication US11279733B2, “Peptide antibiotics” (priority 2017, dated 2022)
